Patent US10889591B2, “PDE9 inhibitor and use thereof” (Nanjing TransThera Biosciences Co. Ltd., priority 2017, dated 2021)
Where two headings read alike, the source gives them in different places.

Columns and labels:
PDE1A1 Enzyme = PDE1A1 Enzyme (Homo sapiens (Human), UniProt P54750); test: PDE enzymology evaluation, PDE1A1; format: biochemical
Method: (§1) Experimental Example 5: PDE Enzymology Evaluation Method
(§2) Test substance: Compounds of the invention, prepared by the corresponding examples of the invention
(§3) 1. Experimental materials and instruments
PDE1A1 Enzyme (BPS, Cat. No. 60010)
(§4) 2. Experimental procedure
(§5) Preparation of the compounds: the compounds were prepared into 10 mM compound stock solution in DMSO for long-term storage. The obtained compound stock solution was diluted in 100 times with DMSO to obtain 100 μM compound working mother solution, and then the compound working mother solution was diluted in 3 times with DMSO to obtain 10 concentration gradients of diluted compound mother liquor (100×).
(§6) Incubation with the compounds: A very small amount of liquid pipetting system Echo was used to pipette the diluted compound mother liquor into a 384-well plate. 200 nL diluted compound mother liquor and 10 μL PDE1A1, PDE3A, PDE5A1 and PDE8A1 enzyme solution were added to each compound well. […] In the maximum reading hole (Max), the compound was replaced by solvent. In the minimum reading hole (Min), the compound and enzyme solution were replaced by solvent.
(§7) Detection: Fluorescence readings (F) at 480 nm/535 nm were detected using a microplate reader.
(§8) Calculation: The inhibition rate was calculated as follows, and IC50 was fitted using GraphPad Prism 5.0: […]

PDE3A Enzyme = PDE3A Enzyme (Homo sapiens (Human), UniProt Q14432); test: PDE enzymology evaluation, PDE3A; format: biochemical
Method: as §1, §2, §3
PDE3A Enzyme (BPS, Cat. No. 60030)
as §4, §5, §6, §7, §8

PDE5A1 Enzyme = PDE5A1 Enzyme (Homo sapiens (Human), UniProt O76074); test: PDE enzymology evaluation, PDE5A1; format: biochemical
Method: as §1, §2, §3
PDE5A1 Enzyme (BPS, Cat. No. 60050)
as §4, §5, §6, §7, §8

PDE8A1 Enzyme = PDE8A1 Enzyme (Homo sapiens (Human), UniProt O60658); test: PDE enzymology evaluation, PDE8A1; format: biochemical
Method: as §1, §2, §3
PDE8A1 Enzyme (BPS, Cat. No. 60080)
as §4, §5, §6, §7, §8

[1] = Canine pharmacokinetic evaluation; format: in vivo; conditions: Beagle dogs
Source text: 1. Animal Administration and Sample Collection
2. Sample Analysis Method
3. Data Processing Method

[2] = Rat pharmacokinetic evaluation; format: in vivo, SD male rats; conditions: male, Sprague-Dawley, plasma, SD rat; for Tmax / AUC(0-t) / half-life: po, intragastric 5 mg/kg; for Tmax: median; for AUC(0-t): read-out: AUClast po; for half-life: read-out: tz1/2 po (terminal elimination half-life) (converted); for bioavailability: dose iv/po 1/5 mg/kg, read-out: F % (absolute bioavailability)
Method: Experimental Example 4: Rat Pharmacokinetic Evaluation of the Compounds of the Invention
Aim: The in vivo pharmacokinetic parameters of the compounds in SD male rats (purchased from Beijing Vital River Animal Technology Co., Ltd.) were evaluated and bioavailability of the compounds was examined.
Animal Administration and Sample Collection:
The solution of compounds 65, 90, 107, 158 was intragastrically administered to SD rat at a dose of 5.0 mg/kg.
The experimental compound 76 was dissolved in 30% DMF+30% PEG400+40% saline to prepare a solution. The solution of compound 76 was intragastrically administered to SD rat at a dose of 5.0 mg/kg.
The experimental compound 76 was dissolved in 30% DMF+30% PEG400+40% saline to prepare a solution.
The experimental compounds 84 and 96 were dissolved in 5% DMSO+10% PEG400+85% (28% HP-β-CD) saline to prepare a solution. The solution of compounds 84 and 96 was intragastrically administered to SD rat at a dose of 5.0 mg/kg.
The experimental compounds 84 and 96 were dissolved in 5% DMSO+10% PEG400+85% (28% HP-β-CD) saline to prepare a solution.
The animals were fixed. The tail was heated with a water bath at 10 min before each time point. About 100 μL of blood from tail vein was collected, and then placed in an anti-coagulation tube containing EDTA-K2 after collection. Blood samples were centrifuged at 8000 rpm at 4° C. for 6 min to obtain plasma samples.
The concentration of test sample was output using Analyst 1.6.1 from AB SCIEX.

[3] = human; for CLint: microsomes
[4] = Rat pharmacokinetic evaluation; format: in vivo, SD male rats; conditions: SD rat, intravenous bolus 1 mg/kg; for AUC(0-t) / clearance / half-life: male, Sprague-Dawley, plasma; for AUC(0-t): read-out: AUClast iv; for clearance: read-out: Cl_obs iv (clearance rate) (converted); for half-life: read-out: tz1/2 iv (terminal elimination half-life) (converted)
in vitro = conditions: human, microsomes
Human PDE9 [5] = molecular target: T1, Human PDE9 (Homo sapiens (Human), UniProt O76083); conditions: background statement, in words; cited from earlier work
Human PDE9 [6] = molecular target: T1, Human PDE9; conditions: background statement; read-out: binding constant (Km) of PDE9; cited from earlier work

T1 sequence (O76083 whole entry): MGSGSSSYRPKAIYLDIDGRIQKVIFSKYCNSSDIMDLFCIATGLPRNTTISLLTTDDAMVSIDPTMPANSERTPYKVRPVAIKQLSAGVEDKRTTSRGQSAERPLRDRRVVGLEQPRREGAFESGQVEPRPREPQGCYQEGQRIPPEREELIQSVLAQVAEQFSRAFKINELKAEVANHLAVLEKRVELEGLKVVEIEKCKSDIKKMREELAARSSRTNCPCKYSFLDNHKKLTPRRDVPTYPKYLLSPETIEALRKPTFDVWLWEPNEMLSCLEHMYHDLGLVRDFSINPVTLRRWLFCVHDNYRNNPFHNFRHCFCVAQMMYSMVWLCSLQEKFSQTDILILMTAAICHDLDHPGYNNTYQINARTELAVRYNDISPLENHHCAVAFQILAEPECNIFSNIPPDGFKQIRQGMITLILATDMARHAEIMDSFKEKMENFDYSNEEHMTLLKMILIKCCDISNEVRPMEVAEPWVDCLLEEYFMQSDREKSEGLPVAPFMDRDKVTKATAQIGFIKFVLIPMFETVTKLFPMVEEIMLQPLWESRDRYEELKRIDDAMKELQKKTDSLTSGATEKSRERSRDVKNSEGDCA
Sequence of PDE3A Enzyme (Q14432 whole entry): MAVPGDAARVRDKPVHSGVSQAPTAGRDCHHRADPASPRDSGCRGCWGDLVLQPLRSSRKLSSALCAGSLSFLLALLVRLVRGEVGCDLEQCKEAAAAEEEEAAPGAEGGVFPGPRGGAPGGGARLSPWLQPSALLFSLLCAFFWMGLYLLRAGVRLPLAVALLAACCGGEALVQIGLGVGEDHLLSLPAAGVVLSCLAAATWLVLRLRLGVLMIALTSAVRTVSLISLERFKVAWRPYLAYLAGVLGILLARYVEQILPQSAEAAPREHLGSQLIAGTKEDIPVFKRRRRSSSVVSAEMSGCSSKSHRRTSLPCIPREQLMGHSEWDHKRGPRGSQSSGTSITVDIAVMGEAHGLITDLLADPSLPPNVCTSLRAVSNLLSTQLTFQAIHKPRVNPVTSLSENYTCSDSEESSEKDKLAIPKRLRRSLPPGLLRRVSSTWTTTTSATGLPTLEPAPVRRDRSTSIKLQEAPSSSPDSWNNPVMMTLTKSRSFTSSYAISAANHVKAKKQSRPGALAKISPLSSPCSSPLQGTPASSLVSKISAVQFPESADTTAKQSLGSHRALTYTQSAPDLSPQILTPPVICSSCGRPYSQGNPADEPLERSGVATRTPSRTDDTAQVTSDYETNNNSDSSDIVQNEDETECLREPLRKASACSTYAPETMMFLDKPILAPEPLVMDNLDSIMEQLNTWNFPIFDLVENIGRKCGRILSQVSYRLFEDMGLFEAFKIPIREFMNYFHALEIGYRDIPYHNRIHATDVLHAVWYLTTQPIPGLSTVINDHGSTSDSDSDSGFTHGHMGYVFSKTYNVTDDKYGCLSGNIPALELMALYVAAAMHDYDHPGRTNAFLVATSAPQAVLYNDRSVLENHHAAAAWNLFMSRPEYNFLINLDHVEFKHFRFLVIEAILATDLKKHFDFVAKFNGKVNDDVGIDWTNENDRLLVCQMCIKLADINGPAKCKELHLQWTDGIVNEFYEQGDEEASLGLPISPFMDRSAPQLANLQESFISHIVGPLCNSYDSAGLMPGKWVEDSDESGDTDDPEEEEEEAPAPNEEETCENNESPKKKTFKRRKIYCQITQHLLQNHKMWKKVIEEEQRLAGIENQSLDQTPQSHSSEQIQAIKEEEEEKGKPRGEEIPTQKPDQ
Sequence of PDE1A1 Enzyme (P54750 whole entry, change not shown): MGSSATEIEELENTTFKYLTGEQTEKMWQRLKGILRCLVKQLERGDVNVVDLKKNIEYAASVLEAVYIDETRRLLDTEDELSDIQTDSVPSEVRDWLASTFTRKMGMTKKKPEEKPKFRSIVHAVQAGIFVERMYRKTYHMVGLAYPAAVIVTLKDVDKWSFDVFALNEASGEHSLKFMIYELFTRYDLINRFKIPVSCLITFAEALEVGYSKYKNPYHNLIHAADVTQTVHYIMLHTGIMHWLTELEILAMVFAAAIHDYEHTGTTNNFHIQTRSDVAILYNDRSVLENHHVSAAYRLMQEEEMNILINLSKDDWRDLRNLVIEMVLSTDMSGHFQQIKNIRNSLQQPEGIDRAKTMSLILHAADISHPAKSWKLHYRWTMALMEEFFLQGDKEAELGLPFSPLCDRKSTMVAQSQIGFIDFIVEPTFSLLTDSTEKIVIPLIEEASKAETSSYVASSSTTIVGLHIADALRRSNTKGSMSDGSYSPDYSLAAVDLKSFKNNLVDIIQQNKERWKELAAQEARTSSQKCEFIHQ
Sequence of PDE8A1 Enzyme (O60658 whole entry): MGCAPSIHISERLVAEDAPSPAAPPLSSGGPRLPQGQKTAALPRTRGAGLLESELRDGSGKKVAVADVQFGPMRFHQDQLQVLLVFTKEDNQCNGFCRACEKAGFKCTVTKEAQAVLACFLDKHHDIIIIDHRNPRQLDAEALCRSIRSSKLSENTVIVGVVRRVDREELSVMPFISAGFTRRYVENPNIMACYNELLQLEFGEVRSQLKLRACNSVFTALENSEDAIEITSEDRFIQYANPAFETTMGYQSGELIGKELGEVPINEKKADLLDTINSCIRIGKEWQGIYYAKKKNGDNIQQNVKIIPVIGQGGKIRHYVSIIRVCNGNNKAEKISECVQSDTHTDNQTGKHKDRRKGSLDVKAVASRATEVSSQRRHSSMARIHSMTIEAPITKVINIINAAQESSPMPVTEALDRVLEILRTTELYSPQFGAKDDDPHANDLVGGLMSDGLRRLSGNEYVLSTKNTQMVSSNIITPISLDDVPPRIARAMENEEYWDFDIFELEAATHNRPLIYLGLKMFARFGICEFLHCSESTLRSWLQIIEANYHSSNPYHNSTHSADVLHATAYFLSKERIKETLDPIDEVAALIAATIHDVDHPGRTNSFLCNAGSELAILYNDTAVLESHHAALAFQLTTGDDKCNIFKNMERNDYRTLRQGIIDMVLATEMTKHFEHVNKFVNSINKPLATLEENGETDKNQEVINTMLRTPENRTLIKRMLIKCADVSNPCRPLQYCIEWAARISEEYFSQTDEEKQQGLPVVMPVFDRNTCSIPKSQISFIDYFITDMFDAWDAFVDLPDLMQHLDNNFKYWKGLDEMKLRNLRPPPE

For `N#Cc1c(N2CCC3(CC2)COC3)c2ccncc2[nH]c1=O` [Compound 24, 2-oxo-4-(2-oxa-7-azaspiro[3.5]nonane-7-yl)-1,2-dihydro-1,7-naphthyridin-3-carbonitrile], the IC50 (PDE1A1 Enzyme) was 4920 nM, the IC50 (PDE3A Enzyme) was over 10000 nM and the IC50 (PDE5A1 Enzyme) was over 10000 nM. The IC50 (PDE8A1 Enzyme) was over 10000 nM.

For `N#Cc1c(N2CCC3(CC2)CC3)c2ccncc2[nH]c1=O` [Compound 25, 2-oxo-4-(6-azaspiro[2.5]octane-6-yl)-1,2-dihydro-1,7-naphthyridin-3-carbonitrile], the “Vz_obs iv (apparent distribution volume)” value ([1]; intravenous bolus 1 mg/kg, n = 3) was 7.06 L/kg, the Tmax ([1]; dog, plasma, po, intragastric 2 mg/kg, n = 3, median) was 0.5 h and the AUC(0-inf) ([1]; dog, plasma, po, intragastric 2 mg/kg, n = 3, read-out: AUCinf po) was 4450 ng·h/mL. It also gave a half-life ([1]; dog, plasma, po, intragastric 2 mg/kg, n = 3, read-out: tz1/2 po (terminal elimination half-life) (converted)) of 9.45 h, a bioavailability ([1]; dog, plasma, dose iv/po 1/2 mg/kg, n = 3) of 99.1% and an AUC(0-inf) ([1]; dog, plasma, intravenous bolus 1 mg/kg, n = 3, read-out: AUCinf iv) of 2240 ng·h/mL. The clearance ([1]; dog, plasma, intravenous bolus 1 mg/kg, n = 3, read-out: Cl_obs iv (clearance rate) (converted)) was 7.83 mL/min/kg, the half-life ([1]; dog, plasma, intravenous bolus 1 mg/kg, n = 3, read-out: tz1/2 iv (terminal elimination half-life) (converted)) was 10.4 h and the Tmax [2] was 1 h. The AUC(0-t) [2] was 2050 ng·h/mL, the half-life [2] was 1.4 h and the bioavailability [2] was 74.2%. The IC50 (PDE1A1 Enzyme) was over 3000 nM, the IC50 (PDE3A Enzyme) was over 3000 nM and the IC50 (PDE5A1 Enzyme) was over 3000 nM. The IC50 (PDE8A1 Enzyme) was over 3000 nM, the “Original drug residual % at 60 min” value [3] was 87.5% and the “k” value [3] was 0.0022 min⁻¹. The CLint [3] was 0.0044 mL · min^−1 · mg^−1 proteins, the “Vz_obs iv (apparent distribution volume)” value [4] was 1.27 L/kg and the AUC(0-t) [4] was 574 ng·h/mL. It also gave a clearance [4] of 29.3 mL/min/kg, a half-life [4] of 0.51 h and a half-life (in vitro) of 5.25 h.

With `CCc1cc2c(N3CCC4(CC3)CC4)c(C#N)c(=O)[nH]c2cn1` [Compound 76, 6-ethyl-2-oxo-4-(6-azaspiro[2.5]octane-6-yl)-1,2-dihydro-1,7-naphthyridin-3-carbonitrile] the Tmax [2] was 1 h, the AUC(0-t) [2] was 5750 ng·h/mL and the half-life [2] was 9.6 h. For the same compound, the bioavailability [2] was 113%, the “Original drug residual % at 60 min” value [3] was 87.3% and the “k” value [3] was 0.0015 min⁻¹. The CLint [3] was 0.0030 mL · min^−1 · mg^−1 proteins, the “Vz_obs iv (apparent distribution volume)” value [4] was 1.25 L/kg and the AUC(0-t) [4] was 1010 ng·h/mL. For the same compound, the clearance [4] was 17.3 mL/min/kg, the half-life [4] was 0.89 h and the half-life (in vitro) was 7.7 h.

In the case of `N#Cc1c(N2CCC3(CC2)CC3)c2cc(C(O)C3CC3)ncc2[nH]c1=O` (centres unmarked) [Compound 90, 6-(cyclopropyl (hydroxy)methyl)-2-oxo-4-(6-azaspiro[2.5]octane-6-yl)-1,2-dihydro-1,7-naphthyridin-3-carbonitrile], the Tmax [2] is reported as 1 h, the AUC(0-t) [2] is reported as 3700 ng·h/mL and the half-life [2] is reported as 4.49 h. For the same compound, the bioavailability [2] was 47.4%, the “Original drug residual % at 60 min” value [3] was 80.5% and the “k” value [3] was 0.0037 min⁻¹. The CLint [3] was 0.0074 mL · min^−1 · mg^−1 proteins, the “Vz_obs iv (apparent distribution volume)” value [4] was 1.38 L/kg and the AUC(0-t) [4] was 1590 ng·h/mL. For the same compound, the clearance [4] was 10.5 mL/min/kg, the half-life [4] was 1.48 h and the half-life (in vitro) was 3.12 h.

For `CC(C)Cn1c(=O)n(C)c(=O)c2[nH]cnc21` [IBMX], the “inhibition activity on PDE9” value (Human PDE9 [5]) is listed as “no or very low inhibition activity”.

In the case of `CC(=O)Nc1ccc(-c2c[nH]c(=O)cn2)cc1` [SKF94120], the “inhibition activity on PDE9” value (Human PDE9 [5]) is listed as “no or very low inhibition activity”.

In the case of `Nc1ncnc2c1ncn2[C@@H]1O[C@@H]2COP(=O)(O)O[C@H]2[C@H]1O` [cAMP, cyclic adenosine monophosphate], the Km (Human PDE9 [6]) is given as 230 µM.

For `Nc1nc2c(ncn2[C@@H]2O[C@@H]3COP(=O)(O)O[C@H]3[C@H]2O)c(=O)[nH]1` [cGMP, cyclic guanosine monophosphate], the Km (Human PDE9 [6]) is listed as 0.17 µM.

For `OCCN(CCO)c1nc(N2CCCCC2)c2nc(N(CCO)CCO)nc(N3CCCCC3)c2n1` [dipyridamole], the “inhibition activity on PDE9” value (Human PDE9 [5]) is listed as “no or very low inhibition activity”.

For `COc1ccc(C2CNC(=O)C2)cc1OC1CCCC1` (centres unmarked) [rolipram], the “inhibition activity on PDE9” value (Human PDE9 [5]) is listed as “no or very low inhibition activity”.

In the case of `CCOC(=O)C1=C[C@]2(CC)CCCN3CCc4c(n1c1ccccc41)[C@@H]32` [vinpocetine], the “inhibition activity on PDE9” value (Human PDE9 [5]) is given as “no or very low inhibition activity”.
